Source: patent publication US10947242B2, “[1,2,4]triazolo[1,5and#8208;A]pyrimidine compounds as PDE2 inhibitors” (Janssen Pharmaceutica NV, priority 2016, dated 2021)
Like-named read-outs stand apart in the source and are kept apart here.

Assays:
[1] = molecular target: T1, Human recombinant PDE2A (hPDE2A) (Homo sapiens, UniProt O00408); experiment: In vitro assay PDE2A (SPA, 3H-cGMP hydrolysis); assay type: biochemical; conditions: for Emax: read-out: hPDE2A Emax
T1 construct: His tag (inferred from metal chelate purification); made in house; host or cells: Sf9 insect cells (baculovirus)
T1 sequence (O00408 whole entry): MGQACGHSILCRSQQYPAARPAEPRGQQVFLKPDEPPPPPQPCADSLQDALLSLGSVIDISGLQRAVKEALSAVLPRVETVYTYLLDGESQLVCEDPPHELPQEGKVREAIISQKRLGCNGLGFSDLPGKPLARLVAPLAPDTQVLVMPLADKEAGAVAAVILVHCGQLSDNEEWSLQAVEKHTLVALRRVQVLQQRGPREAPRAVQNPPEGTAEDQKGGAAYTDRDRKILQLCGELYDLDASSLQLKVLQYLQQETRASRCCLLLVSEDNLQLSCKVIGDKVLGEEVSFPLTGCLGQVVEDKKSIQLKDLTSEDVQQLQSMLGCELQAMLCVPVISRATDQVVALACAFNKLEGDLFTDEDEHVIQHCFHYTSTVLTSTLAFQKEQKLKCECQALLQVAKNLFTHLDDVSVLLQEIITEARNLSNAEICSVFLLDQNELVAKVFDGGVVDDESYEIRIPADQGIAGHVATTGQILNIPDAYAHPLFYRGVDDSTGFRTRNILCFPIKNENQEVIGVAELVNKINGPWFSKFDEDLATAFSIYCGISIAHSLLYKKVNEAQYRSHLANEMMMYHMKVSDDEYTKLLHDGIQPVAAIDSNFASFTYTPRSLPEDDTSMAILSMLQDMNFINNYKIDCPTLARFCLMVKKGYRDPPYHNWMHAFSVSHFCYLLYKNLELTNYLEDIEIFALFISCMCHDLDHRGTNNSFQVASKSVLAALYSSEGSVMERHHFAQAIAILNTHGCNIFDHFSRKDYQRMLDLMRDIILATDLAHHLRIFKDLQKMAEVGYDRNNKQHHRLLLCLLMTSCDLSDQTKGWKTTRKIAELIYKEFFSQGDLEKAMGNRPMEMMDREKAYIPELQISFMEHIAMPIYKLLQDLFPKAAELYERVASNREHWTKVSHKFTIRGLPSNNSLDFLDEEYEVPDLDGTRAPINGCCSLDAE

[2] = molecular target: T2, Human recombinant PDE3A (hPDE3A) (Homo sapiens, UniProt Q14432); experiment: In vitro assay PDE3A (SPA, 3H-cAMP hydrolysis); assay type: biochemical; conditions: for IC50: hPDE3B pIC50; for Emax: read-out: hPDE3B Emax, read-out: Emax;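 on Emax: the method names PDE3A and the table heading PDE3B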
T2 construct: purchased Scottish Biomedical; host or cells: Sf9 insect cells
T2 sequence (Q14432 whole entry): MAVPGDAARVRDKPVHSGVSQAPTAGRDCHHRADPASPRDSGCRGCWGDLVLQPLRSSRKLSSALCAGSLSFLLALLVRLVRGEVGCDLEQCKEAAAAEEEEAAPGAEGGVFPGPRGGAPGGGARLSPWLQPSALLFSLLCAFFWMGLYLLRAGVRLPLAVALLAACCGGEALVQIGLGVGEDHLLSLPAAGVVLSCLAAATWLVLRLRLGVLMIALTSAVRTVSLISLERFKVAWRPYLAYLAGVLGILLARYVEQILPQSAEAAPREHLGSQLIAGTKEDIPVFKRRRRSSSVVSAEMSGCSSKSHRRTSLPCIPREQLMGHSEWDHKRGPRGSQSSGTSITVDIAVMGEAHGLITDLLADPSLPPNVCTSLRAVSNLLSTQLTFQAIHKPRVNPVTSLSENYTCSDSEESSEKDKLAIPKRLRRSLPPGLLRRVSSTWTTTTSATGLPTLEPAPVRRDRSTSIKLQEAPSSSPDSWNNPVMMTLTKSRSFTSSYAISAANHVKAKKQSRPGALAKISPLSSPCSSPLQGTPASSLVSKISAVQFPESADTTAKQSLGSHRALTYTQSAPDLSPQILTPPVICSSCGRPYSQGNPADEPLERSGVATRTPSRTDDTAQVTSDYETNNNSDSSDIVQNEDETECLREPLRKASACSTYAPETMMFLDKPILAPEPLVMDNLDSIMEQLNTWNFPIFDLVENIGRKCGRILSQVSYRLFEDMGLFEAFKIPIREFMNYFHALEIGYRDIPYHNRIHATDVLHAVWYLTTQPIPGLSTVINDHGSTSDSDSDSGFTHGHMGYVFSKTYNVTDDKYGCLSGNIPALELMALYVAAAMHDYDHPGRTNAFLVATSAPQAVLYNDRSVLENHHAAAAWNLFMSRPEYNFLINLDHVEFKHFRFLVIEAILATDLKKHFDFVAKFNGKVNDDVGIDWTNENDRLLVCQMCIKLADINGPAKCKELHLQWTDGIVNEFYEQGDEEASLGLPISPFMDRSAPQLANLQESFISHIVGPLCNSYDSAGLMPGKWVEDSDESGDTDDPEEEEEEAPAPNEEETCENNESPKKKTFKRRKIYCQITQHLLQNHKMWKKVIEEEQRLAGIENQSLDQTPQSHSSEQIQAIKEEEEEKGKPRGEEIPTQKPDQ
In short: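 Radiometric SPA measuring [3H]-cAMP hydrolysis (0.4 μM cAMP, 2.4 μCi/ml) over 60 min at room temperature, in Tris pH 7.8 buffer with MgCl2 and EGTA, 1% DMSO. Enzyme: recombinant human brain PDE3A expressed in Sf9 cells, used as partially purified lysate. Counts compared with enzyme-free blanks and vehicle controls.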

[3] = molecular target: T3, Human recombinant PDE10A (hPDE10A) (Homo sapiens, UniProt Q9Y233); experiment: In vitro assay PDE10A, human clone (SPA, 3H-cAMP hydrolysis); assay type: biochemical
T3 construct: His tag (inferred from metal chelate purification); made in house; host or cells: Sf9 insect cells (baculovirus)
T3 sequence (Q9Y233 267-1055): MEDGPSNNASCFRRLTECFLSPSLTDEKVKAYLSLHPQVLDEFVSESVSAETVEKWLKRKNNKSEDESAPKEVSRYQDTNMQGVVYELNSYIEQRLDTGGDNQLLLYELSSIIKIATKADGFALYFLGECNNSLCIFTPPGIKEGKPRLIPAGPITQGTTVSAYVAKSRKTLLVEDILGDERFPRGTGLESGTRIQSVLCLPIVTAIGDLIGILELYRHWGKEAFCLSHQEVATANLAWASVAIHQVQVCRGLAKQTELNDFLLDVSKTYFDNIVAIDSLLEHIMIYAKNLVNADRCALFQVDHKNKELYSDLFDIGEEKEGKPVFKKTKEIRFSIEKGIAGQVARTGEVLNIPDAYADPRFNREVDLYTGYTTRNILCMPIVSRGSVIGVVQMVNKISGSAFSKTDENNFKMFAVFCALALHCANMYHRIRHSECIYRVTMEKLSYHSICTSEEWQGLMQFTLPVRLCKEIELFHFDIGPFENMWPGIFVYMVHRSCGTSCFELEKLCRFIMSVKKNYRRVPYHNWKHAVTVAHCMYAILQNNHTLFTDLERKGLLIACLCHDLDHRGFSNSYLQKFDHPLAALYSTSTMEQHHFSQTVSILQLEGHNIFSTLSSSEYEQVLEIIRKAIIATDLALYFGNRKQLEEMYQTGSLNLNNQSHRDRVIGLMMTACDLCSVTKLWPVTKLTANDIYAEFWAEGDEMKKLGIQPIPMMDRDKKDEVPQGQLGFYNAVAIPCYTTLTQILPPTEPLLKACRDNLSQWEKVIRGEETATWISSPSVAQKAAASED
In short: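 Hydrolysis of 3H-cAMP (60 nM cAMP, 0.008 μCi tracer) proceeded for 60 min at room temperature, with the product detected by SPA bead scintillation counting. The enzyme was hPDE10A from baculovirus-infected Sf9 cells in Tris pH 7.8 buffer with MgCl2 and EGTA, and compounds were at 1% DMSO final. Blanks lacked enzyme.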

PDE2A = molecular target: T4, PDE2A (Rattus norvegicus, UniProt Q01062); experiment: PDE2 occupancy by test compounds, ex-vivo autoradiography with [3H]B-17a; assay type: in vivo, Male Wistar rats
T4 construct: Twenty μm-thick striatal sections were cut; from tissue; host or cells: rat brain, striatal sections
T4 sequence (Q01062 1-928): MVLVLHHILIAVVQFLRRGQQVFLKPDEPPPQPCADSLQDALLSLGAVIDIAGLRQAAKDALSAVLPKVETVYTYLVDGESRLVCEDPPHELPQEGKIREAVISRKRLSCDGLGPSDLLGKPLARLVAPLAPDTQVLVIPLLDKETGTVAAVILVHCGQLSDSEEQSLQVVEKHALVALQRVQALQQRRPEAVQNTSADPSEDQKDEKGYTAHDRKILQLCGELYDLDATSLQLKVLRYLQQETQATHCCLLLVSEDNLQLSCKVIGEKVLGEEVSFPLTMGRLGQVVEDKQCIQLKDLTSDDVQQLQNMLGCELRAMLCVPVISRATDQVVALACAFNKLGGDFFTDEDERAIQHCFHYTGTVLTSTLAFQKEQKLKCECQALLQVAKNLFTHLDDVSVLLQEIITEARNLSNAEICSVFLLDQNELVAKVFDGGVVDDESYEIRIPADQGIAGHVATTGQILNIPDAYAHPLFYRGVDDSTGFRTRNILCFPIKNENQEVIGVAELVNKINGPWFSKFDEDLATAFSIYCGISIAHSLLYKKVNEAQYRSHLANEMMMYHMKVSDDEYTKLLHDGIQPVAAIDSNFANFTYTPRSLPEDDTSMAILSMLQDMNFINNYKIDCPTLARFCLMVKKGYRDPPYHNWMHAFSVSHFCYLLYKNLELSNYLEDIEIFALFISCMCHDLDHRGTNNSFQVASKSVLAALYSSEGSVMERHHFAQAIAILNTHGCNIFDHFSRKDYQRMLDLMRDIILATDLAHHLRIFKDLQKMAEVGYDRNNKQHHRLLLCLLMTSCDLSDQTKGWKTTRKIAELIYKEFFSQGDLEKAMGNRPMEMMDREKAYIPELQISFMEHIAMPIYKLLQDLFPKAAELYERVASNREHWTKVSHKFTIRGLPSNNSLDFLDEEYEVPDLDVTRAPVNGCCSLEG

[4] = read-out: hPDE2A pIC50 (converted)
[5] = human clone (h), default, read-out: hPDE10A2 Emax
[6] = human clone (h), default, read-out: hPDE10A2 pIC50 (converted)
[7] = human clone by default (no (r) mark), read-out: hPDE10A2 or rPDE10A2 Emax
[8] = human clone by default (no (r) mark), read-out: hPDE10A2 or rPDE10A2 pIC50 (converted)
[9] = po, 10 mg/kg, route PO (oral), percentage receptor occupancy, ex-vivo autoradiography, striatum
[10] = 10 mg/kg, route PO (oral), percentage receptor occupancy, ex-vivo autoradiography, striatum
[11] = human recombinant PDE2A, 10 μM cGMP substrate, read-out: hPDE2A pIC50 (converted)

## COc1ncc(C)cc1C(=O)N1CC[C@@H](C)[C@H](c2cc(C(F)F)nc3ncnn23)C1 [Compound 272]
[1]
  Emax: 102%
[1]; [4]
  IC50: 2.19 nM
[2]; read-out: pIC50 (converted)
  IC50: 8910 nM
[2]
  Emax: 54%
[3]; [5]
  Emax: 93%
[3]; [6]
  IC50: 794 nM
[3]; [7]
  Emax: 93%
[3]; [8]
  IC50: 794 nM
PDE2A; [9]
  receptor occupancy at 10 mg/kg: 3%

## Cc1csc(C(=O)N2[C@H]3CC[C@H](c4cc(C(F)F)nc5ncnn45)[C@@H]2CC3)c1 [Compound 347]
[1]; hPDE2A pIC50
  IC50: 5.37 nM
[1]
  Emax: 101%
[2]
  IC50: 7240 nM
  Emax: 63%
[3]; hPDE10A2 or rPDE10A2 pIC50, human clone by default (no (r) mark)
  IC50: 1000 nM
[3]; [7]
  Emax: 91%
PDE2A; [10]
  receptor occupancy at 10 mg/kg: 11%

## COc1cc(C(=O)N2[C@H]3CC[C@H](c4cc(C(F)F)nc5ncnn45)[C@@H]2CC3)cc(C)n1 [Compound 290]
[1]
  Emax: 98%
[1]; [4]
  IC50: 5.89 nM
[2]; read-out: pIC50 (converted)
  IC50: 6920 nM
[2]
  Emax: 53%
[3]; [7]
  Emax: 89%
[3]; [8]
  IC50: 1410 nM
PDE2A; [10]
  receptor occupancy at 10 mg/kg: -3%

## C[C@@H]1CCN(C(=O)c2noc3ccccc23)C[C@H]1c1cc(C(F)F)nc2ncnn12 [Compound 187]
[1]; [11]
  IC50: 17.8 nM
[1]; human recombinant PDE2A
  Emax: 99%
[1]
  Emax: 99%
[1]; [4]
  IC50: 17.8 nM
[2]; read-out: pIC50 (converted)
  IC50: 3470 nM
[2]
  Emax: 74%
[3]; [5]
  Emax: 95%
[3]; [6]
  IC50: 427 nM
PDE2A; sc, 10 mg/kg, route SC (subcutaneous), percentage receptor occupancy, ex-vivo autoradiography, striatum
  receptor occupancy at 10 mg/kg: 0%

## Cc1cc(C(=O)N2CC[C@@H](C)[C@](F)(c3cc(C(F)F)nc4ncnn34)C2)cc(C2CC2)n1 [Compound 24b]
[1]
  hPDE2A Emax: 98
  hPDE2A pIC50: 8.19
[1]; human recombinant PDE2A
  hPDE2A Emax: 98
[1]; human recombinant PDE2A, 10 μM cGMP substrate
  hPDE2A pIC50: 8.19
[2]
  hPDE3B Emax: 28
[3]; human clone (h), default
  hPDE10A2 Emax: 60
  hPDE10A2 pIC50: 5.13
PDE2A; 10 mg/kg, route SC (subcutaneous), percentage receptor occupancy, ex-vivo autoradiography, striatum
  PDE2 Occupancy at 10 mg/kg: 0

## C[C@@H]1CCN(C(=O)c2ccc3ncsc3c2)C[C@@]1(F)c1cc(C(F)F)nc2ncnn12 [Compound 33]
[1]; [11]
  IC50: 14.8 nM
[1]; human recombinant PDE2A
  Emax: 99%
[1]
  Emax: 99%
[1]; [4]
  IC50: 14.8 nM
[2]; read-out: pIC50 (converted)
  IC50: > 10000 nM
[2]
  Emax: 25%
[3]; [5]
  Emax: 67%
[3]; [6]
  IC50: 6170 nM
PDE2A; [9]
  receptor occupancy at 10 mg/kg: -7%

## COc1cccc2c1OCC(C(=O)N1CC[C@@H](C)[C@H](c3cc(C(F)F)nc4ncnn34)C1)=C2 [Compound 267]
[1]
  Emax: 102%
[1]; [4]
  IC50: 0.398 nM
[2]; read-out: pIC50 (converted)
  IC50: 61.7 nM
[2]
  Emax: 100%
[3]; [5]
  Emax: 99%
[3]; [6]
  IC50: 11.2 nM
[3]; [7]
  Emax: 99%
[3]; [8]
  IC50: 11.2 nM
PDE2A; [9]
  receptor occupancy at 10 mg/kg: 59%
PDE2A; route PO (oral), drug dose producing 50% receptor occupancy, read-out: PDE Occupancy ED50
  ED50: 11 mg/kg

## Cc1cc(C(=O)N2[C@H]3CC[C@H](c4cc(C(F)F)nc5ncnn45)[C@@H]2CC3)cc(C(F)(F)F)n1 [Compound 286]
[1]
  Emax: 101%
[1]; [4]
  IC50: 6.92 nM
[2]; read-out: pIC50 (converted)
  IC50: > 10000 nM
[2]
  Emax: 14%
[3]; [7]
  Emax: 79%
[3]; [8]
  IC50: 2240 nM
PDE2A; [10]
  receptor occupancy at 10 mg/kg: 5%

## CCCC[C@H]1CCN(C(=O)c2cc(C)nc(C)c2)C[C@@H]1c1cc(C(F)F)nc2ncnn12 (single isomer, unassigned) [Compound 46]
[1]; [11]
  IC50: 15.1 nM
[1]; human recombinant PDE2A
  Emax: 100%
[1]
  Emax: 100%
[1]; [4]
  IC50: 15.1 nM
[2]; read-out: pIC50 (converted)
  IC50: > 10000 nM
[2]
  Emax: 5%
[3]; [5]
  Emax: 86%
[3]; [6]
  IC50: 2240 nM
PDE2A; [9]
  receptor occupancy at 10 mg/kg: -9%

## O=C(c1ccc2ccccc2c1)N1[C@H]2CC[C@H](c3cc(C(F)F)nc4ncnn34)[C@@H]1CC2 [Compound 319]
[1]
  Emax: 100%
[1]; [4]
  IC50: 1.12 nM
[2]; read-out: pIC50 (converted)
  IC50: 1020 nM
[2]
  Emax: 95%
[3]; [7]
  Emax: 99%
[3]; [8]
  IC50: 263 nM
PDE2A; [10]
  receptor occupancy at 10 mg/kg: 37%

## Cn1ccc2c(F)c(C(=O)N3[C@H]4CC[C@H](c5cc(C(F)F)nc6ncnn56)[C@@H]3CC4)ccc21
other
  melting point: 220.89 °C
